Experimental data: patent US9315546B2, “Growth hormone secretatogue receptor antagonists and uses thereof” (The Administrators of the Tulane Educational Fund, priority 2010, dated 2016)
Where “and” joins values, the source holds several entries; their conditions need not be identical. Identical values can stand only once. Where no end group is shown, it is not given here. [ ]: non-standard residue; d: D form. d2Nal = N[C@H](Cc1ccc2ccccc2c1)C(=O)O; Aib = CC(C)(N)C(=O)O; βAla = NCCC(=O)O

Assays:
[1] = target: T1, Ghrelin/GHRP/GHS Receptor (Rattus norvegicus, UniProt O08725); test: In vivo GH release in rat after i.v. peptide (serum GH by RIA)
T1 sequence (O08725 whole entry): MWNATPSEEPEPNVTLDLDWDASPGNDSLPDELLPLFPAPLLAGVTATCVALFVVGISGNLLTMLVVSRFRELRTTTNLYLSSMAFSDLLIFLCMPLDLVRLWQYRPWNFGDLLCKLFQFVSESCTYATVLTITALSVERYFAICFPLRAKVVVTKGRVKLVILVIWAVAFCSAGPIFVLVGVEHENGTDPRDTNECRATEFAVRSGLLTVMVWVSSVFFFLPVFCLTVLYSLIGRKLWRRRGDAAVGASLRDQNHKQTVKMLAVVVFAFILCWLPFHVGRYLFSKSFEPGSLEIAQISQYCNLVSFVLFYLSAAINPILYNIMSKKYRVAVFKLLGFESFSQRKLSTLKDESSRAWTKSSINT
Method: For the in vivo assay of GH Release in rat, immature female Sprague Dawley rats were obtained from Charles River from Wilmington, Mass. After arrival they were housed at 25° C. with a 14:10 h light:dark cycle. Water and Purina rat chow were available at libitum. Pups were weaned at 21 days of age.
Immature twenty six day old female Sprague Dawley rats, 3-6 rats per treatment dose, were pretreated with pentobarbital 20 minutes before iv injection of vehicle/peptide or peptide plus stimulator. Injection was made as a 0.1 ml solution. For the non-pentobarbital treated rat assay, peptides were administered iv into the tail vein of conscious rats. All animals were sacrificed by guillotine after iv peptide or vehicle. Trunk blood was collected at +10-15 minutes […], allowed to clot, centrifuged and serum stored until assayed for GH levels by RIA. The GH RIA reagents were distributed by the NIH. Control data was collected from rats treated with only the corresponding vehicle in the absence of peptide or stimulator. Control stimulated data was collected from rats treated with stimulator alone in the absence of any peptide.

[2] = target: T1, Ghrelin/GHRP/GHS Receptor; test: GH release from cell culture of pituitary cells; type: cell-based; parameters: After dispersion, the cells were collected by centrifugation, wash with DMEM and placed into culture well; endogenous in cells; host or cells: dispersed primary rat pituitary cells, 4 days in culture; details: for Unstimulated Basal GH release: Table 8
Method: In vitro GH Release-Female rats of the CD-1 strain were housed in a constant temperature room at 24° C. with 14 h light and 10 h darkness. The rats were fed Purina Rat chow and water at libitum. All studies were started between 0800-1000 hours. Pituitaries of mature female Sprague Dawley rats were rapidly removed after decapitation, neurointermediate lobe discarded and then placed in a pH 7.4 buffer. The pituitaries were cut into ˜3-mm pieces and then transferred to a flask containing HEPS buffer with trypsin and incubated at 37° C. Cells were triturated several times during this period. After dispersion, the cells were collected by centrifugation, wash with DMEM and placed into culture well. Cell cultures were maintained for 4 days at 37° with 8% CO2 added to the incubator atmosphere. After 4 days in culture, cells were washed with lactated Ringer's solution adjusted to pH 7.2-7.4 and then vehicle, peptide alone or peptide plus stimulator was added to media. Incubation time was 60-120 minutes after which media was removed from each well for GH determination. The GH RIA reagents were distributed by the NIH. Control data was collected from cell cultures treated with only the corresponding vehicle in the absence of peptide or stimulator. Control stimulated data was collected from cell cultures treated with stimulator alone in the absence of any peptide.

[3] = Table 5, peptide alone 10 μg i.v.
[4] = Table 5, peptide alone 30 μg i.v.
[5] = Table 3, peptide alone 1 μg i.v.
[6] = Table 3, peptide alone 3 μg i.v.
[7] = Table 3, peptide alone 10 μg i.v.
[8] = Table 3, peptide alone 30 μg i.v.
[9] = Table 3, peptide alone 100 μg i.v.
[10] = peptide antagonist 30 μg i.v. + stimulator 0.3 μg
[11] = Table 5, peptide alone 1 μg i.v.

inip-Trp-Trp-Phe-NH2 [10-inip-Trp-Trp-Phe-NH2]
Unstimulated Basal GH release [1, 3]: 69 ± 3 ng/mL | Unstimulated Basal GH release [1, 4]: 81 ± 10 ng/mL

DcyclohexylAla-Ala-Phe-DTrp-Lys-NH2 [3-DcyclohexylAla-Ala-Phe-DTrp-Lys-NH2]
Unstimulated Basal GH release [1, 5]: 199 ± 63 ng/mL | Unstimulated Basal GH release [1, 6]: 266 ± 68 ng/mL | Unstimulated Basal GH release [1, 7]: 199 ± 23 ng/mL | Unstimulated Basal GH release [1, 8]: 346 ± 82 ng/mL | Unstimulated Basal GH release [1, 9]: 350 ± 61 ng/mL

[βAla]W[dA][dW]F-NH2 [10-βAla-Trp-DAla-DTrp-Phe-NH2]
Unstimulated Basal GH release [1, 8]: 341 ± 46 ng/mL | Unstimulated Basal GH release [1, 9]: 636 ± 171 ng/mL

[dA][d2Nal][dA][dW]FK-NH2 [9-DAla-DβNal-DAla-DTrp-Phe-Lys-NH2]
Unstimulated Basal GH release [1, 5]: 184 ± 55 ng/mL | Unstimulated Basal GH release [1, 6]: 467 ± 201 ng/mL | Unstimulated Basal GH release [1, 7]: 244 ± 107 ng/mL

Glyψ[CH2NH]-DβNal-Ala-Trp-DPhe-Lys-NH2 [1-Glyψ[CH2NH]-DβNal-Ala-Trp-DPhe-Lys-NH2]
Stimulated GH release ([1]; peptide antagonist 10 μg i.v. + stimulator 0.3 μg): 1112 ± 200 ng/mL | Stimulated GH release ([1]; peptide antagonist 10 μg i.v. + stimulator 1 μg): 2307 ± 176 ng/mL and 1842 ± 454 ng/mL | Stimulated GH release [1, 10]: 578 ± 82 ng/mL | Stimulated GH release ([1]; peptide antagonist 30 μg i.v. + stimulator 1 μg): 890 ± 236 ng/mL and 1135 ± 140 ng/mL

[dA][d2Nal]AT[dT]K-NH2 [4-DAla-DβNal-Ala-Thr-DThr-Lys-NH2]
Unstimulated Basal GH release [1, 6]: 255 ± 38 ng/mL | Unstimulated Basal GH release [1, 8]: 288 ± 31 ng/mL | Unstimulated Basal GH release [1, 9]: 386 ± 57 ng/mL

AH[dW][dK]W[dF]K-NH2 [5-Ala-His-DTrp-DLys-Trp-DPhe-Lys-NH2]
Stimulated GH release [1, 10]: 1487 ± 397 ng/mL

Y[dA]F[Aib]-NH2 [1-Tyr-DAla-Phe-Aib-NH2]
Stimulated GH release (P + S) ([1]; Non-Pentobarbital Rats, peptide 30 μg i.v. + stimulator 10 μg): 23 ± 5 ng/mL | Unstimulated GH release (−S) ([1]; Non-Pentobarbital Rats, peptide alone 30 μg i.v.): 18 ± 1 ng/mL

αγAbu-DTrp-DTrp-Orn-NH2 [3-αγAbu-DTrp-DTrp-Orn-NH2]
Unstimulated Basal GH release [1, 11]: 118 ± 16 ng/mL | Unstimulated Basal GH release [1, 3]: 126 ± 27 ng/mL | Unstimulated Basal GH release [1, 4]: 79 ± 31 ng/mL

αγAbu-DTrp-DTrp-Ser-NH2 [1-αγAbu-DTrp-DTrp-Ser-NH2]
Unstimulated Basal GH release [1, 11]: 80 ± 35 ng/mL | Unstimulated Basal GH release [1, 3]: 62 ± 15 ng/mL | Unstimulated Basal GH release [1, 4]: 67 ± 8 ng/mL

Arg-DTrp-Leu-Tyr-Trp-Pro(cyclic Arg-Pro) (WLYWP; HELM PEPTIDE1{R.[dW].L.Y.W.P}$PEPTIDE1,PEPTIDE1,1:R1-6:R2$$$V2.0; SMILES CC(C)C[C@@H]1NC(=O)[C@@H](Cc2c[nH]c3ccccc23)NC(=O)[C@H](CCCNC(=N)N)NC(=O)[C@@H]2CCCN2C(=O)[C@H](Cc2c[nH]c3ccccc23)NC(=O)[C@H](Cc2ccc(O)cc2)NC1=O)
Unstimulated Basal GH release ([2]; peptide 3 μg/ml): 1480 ± 19 ng/mL | Unstimulated Basal GH release ([2]; peptide 10 μg/ml): 802 ± 26 ng/mL | Unstimulated Basal GH release ([2]; peptide 30 μg/ml): 601 ± 16 ng/mL | Unstimulated Basal GH release ([2]; peptide 100 μg/ml): 509 ± 49 ng/mL

p-phenyl(piperidinamide-DTrpLysSer(BZL)-acetylamide
Stimulated GH release (P + S) ([2]; Table 11, compound 1 μg/ml + stimulator 1 ng/ml): 680 ± 13 ng/mL | Stimulated GH release (P + S) ([2]; Table 11, compound 3 μg/ml + stimulator 1 ng/ml): 489 ± 41 ng/mL | Stimulated GH release (P + S) ([2]; Table 11, compound 10 μg/ml + stimulator 1 ng/ml): 245 ± 16 ng/mL

DPhe-Ala-Phe-DPal-NH2 [6-DPhe-Ala-Phe-DPal-NH2]
Unstimulated Basal GH release ([2]; peptide 3 μg/ml): 170 ± 19 ng/mL | Unstimulated Basal GH release ([2]; peptide 10 μg/ml): 181 ± 31 ng/mL | Unstimulated Basal GH release ([2]; peptide 30 μg/ml): 161 ± 20 ng/mL | Unstimulated Basal GH release ([2]; peptide 100 μg/ml): 146 ± 21 ng/mL

2-[acetylester]-3-(p-m-methoxyl phenyl) piperidinamide]-naphthalene carboxamide
Stimulated GH release (P + S) ([2]; Table 10, compound 10 μg/ml + stimulator 1 ng/ml): 480 ± 9 ng/mL | Stimulated GH release (P + S) ([2]; Table 10, compound 30 μg/ml + stimulator 1 ng/ml): 223 ± 22 ng/mL | Unstimulated GH release ([2]; Table 10, compound alone 10 μg/ml): 373 ± 2 ng/mL | Unstimulated GH release ([2]; Table 10, compound alone 30 μg/ml): 176 ± 11 ng/mL
